According to patent publication US6492174B1, “Methods of initiating embryogenic cultures in plants” (Institute of Paper Science & Technology, priority 2000, dated 2002):

Assays:
Format in all cases: cell-based
[1] = system: Loblolly pine megagametophytes; test: Loblolly pine extrusion and initiation on solid media #1042 (no ABA) with brassinolide, eight weeks
Protocol: The promotion of extrusion and initiation in Example 4 was obtained on media containing both brassinolide and abscisic acid (ABA). ABA is known in the art to enhance initiation. This experiment was conducted to determine if brassinolide will promote initiation independently of ABA. The explants were megagametophytes from summer cone collections from four individual trees, each representing a distinct genotype. The seeds contained Stage 2-4 zygotic embryos. Megagametophytes were excised from sterilized seeds, as described in Example 4.
The control media was solid media #1042, which contains no ABA or brassinolide (Table 47). Treatment media were composed of #1042 plus 0, 0.025, 0.10 or 0.25 μM brassinolide (Table 13). While still liquid, 2 ml media was poured into wells on a culture well plate and allowed to solidify. […] Each replication consisted of ten megagametophytes in adjacent wells on a single well plate. Plates were wrapped with PARAFILM and incubated at 23-24° C. in the dark.
Both extrusion (Table 14) and initiation (Table 15) frequencies were higher in the brassinolide treatments than in the control. There was no clear brassinolide concentration effect within the tested range. […] One of skill in the art can empirically determine the optimal effective upper and lower brassinolide concentration limits for solid media.

[2] = system: Loblolly pine megagametophytes; test: Loblolly pine extrusion and initiation immersed in liquid media #1071 with brassinolide, eight weeks
Protocol: In Examples 4 and 5, the effect of varying brassinolide concentration in a solid media was measured. This experiment was conducted to determine the optimal concentration of brassinolide in a liquid media. The explants in this experiment were megagametophytes isolated from the cones of four open-pollinated trees representing a multiplicity of genotypes. The seeds contained Stage 2-4 zygotic embryos. Seeds were sterilized as described in Example 1. Seed coats were split and the megagametophytes were isolated by removing integuments and nucellus. Isolated megagametophytes were wholly immersed in liquid media #1071 (Table 47) containing varying concentrations of brassinolide. The five treatments consisted of media containing zero, 0.05, 0.1, 0.15 and 0.2 μM brassinolide (Table 16). Two ml of each media was poured into wells on culture well plates. […]. The experiment consisted of four replications per treatment, per cone collection.
Nevertheless, overall extrusion frequency was increased in the brassinolide treatments as compared to the control (Table 17). Initiation frequency was increased by the addition of brassinolide from 0.05 to 0.2 μM (Table 18). […] Nevertheless, one of skill in the art could empirically determine the upper and lower effective concentration of brassinolide which is effective in promoting initiation in a liquid media.

[3] = system: rice (Oryza sativa) cultivar Taipei 309 dehulled seeds; test: Rice embryogenic callus diameter on MS media with 2.0 mg/l 2,4-D, two weeks; details: for Callus Diameter (mm) + (std. error): two weeks
Description: In this experiment, brassinolide and elevated atmospheric pressure improved the initiation of embryogenic cultures in rice (Oryza sativa). Rice, an annual angiosperm, is quite taxonomically distant from the conifers used in previous examples. However, as this example makes clear, brassinosteroids and elevated atmospheric pressure effectively increase embryogenic culture initiation of in a wide variety of species.
In this experiment, four initiation treatments were studied, using explants from mature Japaonica rice seeds (cultivar Taipei 309). The explants were dehulled sterilized seeds. About 400 mature seeds were dehulled and surface sterilized in a 5.25% bleach solution for 25 minutes and then rinsed three times with sterile deionized water. About 70 explants were placed into each of four treatment petri dishes containing solid media. The explants were placed with the embryo side up. The basal media was a Murashige and Skoog (MS) media containing 2.0 mg/l 2,4-D. Plates were wrapped in PARAFILM and cultured in the dark at 27° for two weeks.
Treatment 1, the control treatment, consisted of the above-described basal media, contained no brassinolide, and was cultured at atmospheric pressure. Treatment 2 contained the basal media and was cultured at 1.5 atm of pressure. Treatment 3 contained basal to which 0.1 μM brassinolide was added and was cultured at normal atmospheric pressure. Treatment 4 contained basal media to which 1 μM brassinolide was added and was cultured at atmospheric pressure.
After two weeks, embryogenic callus had developed on most of the explants. The embryogenic callus formed in spherical formations around the embryo. During culture, the scutellum elongated and the embryogenic calli formed masses around the base of the scutellum, covering and obscuring the rest of the embryo. Initiation was scored by measuring the diameter of the embrygenic callus on each explant. A larger callus contains more somatic embryos and thus has a greater potential to supply viable embryos for subsequent regeneration of whole plants. Callus size was measured by observing callus under a dissecting scope fitted with an ocular measurement device allowing accurate measurements to 0.1 mm.

CC(C)[C@H](C)[C@@H](O)[C@H](O)[C@@H](C)[C@H]1CC[C@H]2[C@@H]3COC(=O)[C@H]4C[C@H](O)[C@H](O)C[C@]4(C)[C@H]3CC[C@]12C [brassinolide]
extrusion and initiation frequencies vs control ([1]; 0.025, 0.10 or 0.25 μM brassinolide, absence of ABA): higher
% of Megagametophytes Extruding ([1]; genotype 5-1207, 0.025 μM Br): 38.3 (15.9) %
% of Megagametophytes Initiating ([1]; genotype 5-1207, 0.025 μM Br): 27.5 (16.3) %
% of Megagametophytes Extruding ([1]; genotype 5-1207, 0.10 μM Br): 30.0 (13.3) %
% of Megagametophytes Initiating ([1]; genotype 5-1207, 0.10 μM Br): 20 (15.3) %
% of Megagametophytes Extruding ([1]; genotype 5-1207, 0.25 μM Br): 20.0 (10.0) %
% of Megagametophytes Initiating ([1]; genotype 5-1207, 0.25 μM Br): 16.7 (8.8) %
% of Megagametophytes Extruding ([1]; genotype 7-1051, 0.025 μM Br): 43.3 (8.8) %
% of Megagametophytes Initiating ([1]; genotype 7-1051, 0.025 μM Br): 20 (20.0) %
% of Megagametophytes Extruding ([1]; genotype 7-1051, 0.10 μM Br): 46.7 (13.3) %
% of Megagametophytes Initiating ([1]; genotype 7-1051, 0.10 μM Br): 26.7 (8.8) %
% of Megagametophytes Extruding ([1]; genotype 7-1051, 0.25 μM Br): 53.3 (12.0) %
% of Megagametophytes Initiating ([1]; genotype 7-1051, 0.25 μM Br): 16.7 (8.8) %
% of Megagametophytes Extruding ([1]; genotype 11-1055, 0.025 μM Br): 66.7 (3.3) %
% of Megagametophytes Initiating ([1]; genotype 11-1055, 0.025 μM Br): 53.3 (6.7) %
% of Megagametophytes Extruding ([1]; genotype 11-1055, 0.10 μM Br): 63.3 (13.3) %
% of Megagametophytes Initiating ([1]; genotype 11-1055, 0.10 μM Br): 46.7 (14.5) %
% of Megagametophytes Extruding ([1]; genotype 11-1055, 0.25 μM Br): 70.0 (11.5) %
% of Megagametophytes Initiating ([1]; genotype 11-1055, 0.25 μM Br): 53.3 (8.8) %
% of Megagametophytes Extruding ([1]; genotype 11-1507, 0.025 μM Br): 26.7 (6.7) %
% of Megagametophytes Initiating ([1]; genotype 11-1507, 0.025 μM Br): 13.3 (3.3) %
% of Megagametophytes Extruding ([1]; genotype 11-1507, 0.10 μM Br): 36.7 (3.3) %
% of Megagametophytes Initiating ([1]; genotype 11-1507, 0.10 μM Br): 16.7 (8.8) %
% of Megagametophytes Extruding ([1]; genotype 11-1507, 0.25 μM Br): 23.3 (3.3) %
% of Megagametophytes Initiating ([1]; genotype 11-1507, 0.25 μM Br): 13.3 (3.3) %
% of Megagametophytes Extruding ([1]; total, 0.025 μM Br): 43.8%
% of Megagametophytes Initiating ([1]; total, 0.025 μM Br): 28.5%
% of Megagametophytes Extruding ([1]; total, 0.10 μM Br): 44.2%
% of Megagametophytes Initiating ([1]; total, 0.10 μM Br): 27.5%
% of Megagametophytes Extruding ([1]; total, 0.25 μM Br): 41.7%
% of Megagametophytes Initiating ([1]; total, 0.25 μM Br): 25.0%
Initiation frequency vs control ([2]; brassinolide from 0.05 to 0.2 μM, liquid media): increased
% of Megagametophytes Extruding ([2]; genotype FN, 0.05 μM Br): 32.5 (12.5) %
% of Megagametophytes Initiating ([2]; genotype FN, 0.05 μM Br): 20.0 (10.8) %
% of Megagametophytes Extruding ([2]; genotype FN, 0.10 μM Br): 15.0 (6.5) %
% of Megagametophytes Initiating ([2]; genotype FN, 0.10 μM Br): 10.0 (4.1) %
% of Megagametophytes Extruding ([2]; genotype FN, 0.15 μM Br): 40.0 (20.4) %
% of Megagametophytes Initiating ([2]; genotype FN, 0.15 μM Br): 20.0 (12.2) %
% of Megagametophytes Extruding ([2]; genotype FN, 0.2 μM Br): 50.0 (18.3) %
% of Megagametophytes Initiating ([2]; genotype FN, 0.2 μM Br): 35.0 (15.0) %
% of Megagametophytes Extruding ([2]; genotype FO, 0.05 μM Br): 0.0 (0) %
% of Megagametophytes Initiating ([2]; genotype FO, 0.05 μM Br): 0 (0) %
% of Megagametophytes Extruding ([2]; genotype FO, 0.10 μM Br): 0.0 (0) %
% of Megagametophytes Initiating ([2]; genotype FO, 0.10 μM Br): 0 (0) %
% of Megagametophytes Extruding ([2]; genotype FO, 0.15 μM Br): 0.0 (0) %
% of Megagametophytes Initiating ([2]; genotype FO, 0.15 μM Br): 0 (0) %
% of Megagametophytes Extruding ([2]; genotype FO, 0.2 μM Br): 0.0 (0) %
% of Megagametophytes Initiating ([2]; genotype FO, 0.2 μM Br): 0 (0) %
% of Megagametophytes Extruding ([2]; genotype FX, 0.05 μM Br): 17.5 (6.3) %
% of Megagametophytes Initiating ([2]; genotype FX, 0.05 μM Br): 17.5 (6.3) %
% of Megagametophytes Extruding ([2]; genotype FX, 0.10 μM Br): 27.5 (12.5) %
% of Megagametophytes Initiating ([2]; genotype FX, 0.10 μM Br): 25.0 (10.4) %
% of Megagametophytes Extruding ([2]; genotype FX, 0.15 μM Br): 15.0 (5.0) %
% of Megagametophytes Initiating ([2]; genotype FX, 0.15 μM Br): 12.5 (4.8) %
% of Megagametophytes Extruding ([2]; genotype FX, 0.2 μM Br): 17.5 (4.8) %
% of Megagametophytes Initiating ([2]; genotype FX, 0.2 μM Br): 17.5 (4.8) %
% of Megagametophytes Extruding ([2]; genotype FZ, 0.05 μM Br): 0.0 (0) %
% of Megagametophytes Initiating ([2]; genotype FZ, 0.05 μM Br): 0 (0) %
% of Megagametophytes Extruding ([2]; genotype FZ, 0.10 μM Br): 2.5 (2.5) %
% of Megagametophytes Initiating ([2]; genotype FZ, 0.10 μM Br): 2.5 (2.5) %
% of Megagametophytes Extruding ([2]; genotype FZ, 0.15 μM Br): 2.5 (2.5) %
% of Megagametophytes Initiating ([2]; genotype FZ, 0.15 μM Br): 2.5 (2.5) %
% of Megagametophytes Extruding ([2]; genotype FZ, 0.2 μM Br): 0.0 (0) %
% of Megagametophytes Initiating ([2]; genotype FZ, 0.2 μM Br): 0 (0) %
% of Megagametophytes Extruding ([2]; total, 0.05 μM Br): 12.5%
% of Megagametophytes Initiating ([2]; total, 0.05 μM Br): 9.4%
% of Megagametophytes Extruding ([2]; total, 0.10 μM Br): 11.3%
% of Megagametophytes Initiating ([2]; total, 0.10 μM Br): 9.4%
% of Megagametophytes Extruding ([2]; total, 0.15 μM Br): 14.4%
% of Megagametophytes Initiating ([2]; total, 0.15 μM Br): 8.8%
% of Megagametophytes Extruding ([2]; total, 0.2 μM Br): 16.9%
% of Megagametophytes Initiating ([2]; total, 0.2 μM Br): 13.1%
average callus size vs control ([3]; 0.1 μM brassinolide): significantly increased
average callus size vs control ([3]; 1.0 μM brassinolide): did not increase callus size
Callus Diameter (mm) + (std. error) ([3]; +0.1 μM Brassinolide): 4.70 (0.13) mm
Callus Diameter (mm) + (std. error) ([3]; +1.0 μM Brassinolide): 4.19 (0.12) mm
